From patent US20070185013A1, “Use of chk1 inhibitors to control cell proliferation” (ICOS CORPORATION, priority 2003, published 2007)

How the values were obtained:
HT29 cells = test: Cell cycle phase distribution by propidium iodide DNA content; format: cell-based, human; conditions: low-level camptothecin, 20 nM for 24 hours
Source text: The proportion of cells in different phases of the cell cycle can be measured by those skilled in the art using any one of a variety of techniques. For example, a fluorescent DNA-binding dye, propidium iodide, can be used to distinguish cells in different cell cycle phases. Since cells in G2 have twice as much DNA as cells in G1, and S phase cells show an intermediate amount of DNA, the technique allows one to identify cells in different phases based on the DNA content of a cell. This method can be carried out on cell lines and tumor specimens (Cerra et al., Methods in Cell Biology, 33:1-12, 1990) Furthermore, cells in S phase can be labeled with the nucleotide analog, bromo-deoxyuridine (BrdU) and then fixed and stained with an fluorescent-tagged antibody to BrdU. Both of these methods employ fluorescence cytometry or fluorescence activity cell sorting (FACS) to quantify the proportion of cells staining with these fluorescent markers. […]
Two cell samples, each containing the same human carcinoma cell line (HT29) were prepared. Using propidium iodide (PI) to monitor DNA content, the percentage of cells the G1, S, and G2/M phases of the cell cycle were measured before and after contact with low levels of camptothecin. […]

tumor cells = test: Cell-based proliferation (sensitization) assay (Example 2); conditions: ratio of GI90 of the chemotherapy agent in absence to that in presence of Chk1 inhibitor
Experimental: Chk1 inhibitors were tested in a cell-based proliferation assay for the ability to sensitize tumor cells to ionizing radiation or chemotherapy agents. Chk1 inhibitors were tested in combination with 5-FU, gemicitabine, ionizing radiation, camptothecin, etoposide, hydroxyurea, cisplatin, fludarabine, Ara-C and aphidicolin. For each experiment, a serial dilution of each compound in combination with a ten-point dilution of each chemotherapy agent was included, in order to determine the concentration of chemotherapeutic required to inhibit the growth of 90% (GI90) of the cells in the presence and absence of the Chk1 inhibitor. This ratio of GI90 in the absence of Chk1 inhibitor to that in the presence of Chk1 inhibitor is called the “fold sensitization.” Fold sensitization was plotted as a function of Chk1 inhibitor concentration and the amount of drug required to yield two-fold sensitization was calculated. […] Another parameter analyzed was the fold sensitization achieved at the LD50 (the dose of compound alone that inhibits growth of 50% of cells) for the compound. These two values allow direct ranking of both the potency and toxicity of Chk1 inhibitors with respect to one another.

Chk1 = Chk1 serine 296 phosphorylation, Western blot in HT29 cells; format: cell-based, human; conditions: tumor cells treated with gemcitabine; Chk1 inhibitors for 15 minutes
Experimental: Phosphorylation at this site is not inhibited by Wortinannin, which inhibits Atm and Atr. Therefore the phosphorylation of serine 296 is distinct from phosphorylation at serines 317 and 345 described in Example 12. […] Therefore, this approach may be used to monitor Chk1 activity in tumors in response to Chk1 activators. Further, this approach may be used to measure inhibition of Chk1 activation by Chk1 inhibitors.
Thus, HT 29 cells were treated with 20 μM gemcitabine for two hours. The gemcitabine was washed out of the cell growth media and cells were incubated for 22 additional hours. Protein lysates were prepared and separated by an SDS-polyacrylamide gel electrophoresis. Proteins were transferred to polyvinylidene fluoride (PVDF) membranes and probed with antisera (Cell Signalling) specific for phosphorlyated serine 296 (Cell Signalling). […] Further, HT29 cells treated with selective Chk1 inhibitors for 15 minutes show no serine 296 phosphorylation.

SMILES | Fold Sensitization to Agent by Chk1 Inhibitor (tumor cells) [fold] | further results
CC[C@@]1(O)C(=O)OCc2c1cc1n(c2=O)Cc2cc3ccccc3nc2-1 [camptothecin] | 5 | G1 (%) (HT29 cells; PI staining): 6.75%; G2/M* (%) (HT29 cells; combined total in G2 + M phase): 7%
COC[C@H]1OC(=O)c2coc3c2[C@@]1(C)C1=C(C3=O)[C@@H]2CCC(=O)[C@@]2(C)C[C@H]1OC(C)=O [Wortinannin] |  | inhibition of Chk1 serine 296 phosphorylation (Chk1): not inhibited
Nc1ccn([C@@H]2O[C@H](CO)[C@@H](O)[C@@H]2O)c(=O)n1 [Ara-C, cytosine arabinoside] | 9 | 
O=c1[nH]cc(F)c(=O)[nH]1 [5-FU, 5-fluorouracil] | 12 | 
COc1cc([C@@H]2c3cc4c(cc3[C@@H](O[C@@H]3O[C@@H]5CO[C@@H](C)O[C@H]5[C@H](O)[C@H]3O)[C@H]3COC(=O)[C@H]23)OCO4)cc(OC)c1O [Etoposide, etoposide] | 3 | 
N.N.[Cl][Pt][Cl] [Cisplatin, cisplatin] | 3 | 
